Among the data in ChEMBL document CHEMBL1146990, “Antibacterial activity of (-)-deoxypseudophrynaminol versus its racemate and derivatives” (2006) are Activity values, retold here.

Assay [1] relates to Staphylococcus aureus. Kind of assay: Antibacterial activity against Staphylococcus aureus at 40 ug/ml relative to control. Type of assay: functional.
In assay [2] the test system is Staphylococcus aureus. Kind of assay: Antibacterial activity against Staphylococcus aureus at 10 ug/ml relative to control. Format: functional.

Molecules are shown by their SMILES. Activity calls are given as the source filed them. No cut-off for these calls is given here.

Molecule `CC(C)=CC[C@@]12CCN(C)[C@@H]1Nc1ccccc12` (racemic) [listing 1 of 2 here] registered an Activity in the assay with Staphylococcus aureus [1] of 85%. For the molecule `COC(=O)N1CC[C@@]2(CC=C(C)C)c3ccccc3N(CC=C(C)C)[C@@H]12` (racemic), the outcome in the assay on Staphylococcus aureus [1] and with Staphylococcus aureus [2] was inactive. Turning to `CC(C)=CC[C@@]12CCN(C)[C@@H]1Nc1ccccc12`, the Activity with Staphylococcus aureus [1] was determined as 99%; in the assay on Staphylococcus aureus [2], 50%. On to `CC(C)=CC[C@@]12CCN(C)[C@@H]1Nc1ccccc12` (racemic) [listing 2 of 2 here], for which the result in the assay with Staphylococcus aureus [2] was inactive. `CC(C)=CCN1c2ccccc2[C@]2(CC=C(C)C)CCN(C)[C@H]12` (racemic) [(-)-DEBROMOFLUSTRAMINE B]: in the assay on Staphylococcus aureus [1], the Activity was 30%.
